Measured values: patent US10750743B2, “Pyridazinone herbicides” (E.I. DU PONT DE NEMOURS AND COMPANY, priority 2015, dated 2020)

Legend:
Type in all cases: in vivo
[1] = test system: barnyardgrass (Echinochloa crus-galli); test: Test A preemergence, directed soil spray, visual injury rating; details: 0 is no effect, 100 is complete control
Procedure, shortened: (§1)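 Injury ratings, 0 (no effect) to 100 (complete control), were scored visually versus untreated plants roughly 10 d after treatment under greenhouse conditions. Treatments used surfactant-containing solvent formulations, sprayed onto soil preemergence or onto one- to two-leaf seedlings (2-10 cm) postemergence, grown in a loam-sand mix.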

[2] = test system: foxtail, giant (giant foxtail, Setaria faberii); test: as above; details: 0 is no effect, 100 is complete control
Procedure, shortened: as §1

kochia (Kochia scoparia) [3] = test: as above; details: 0 is no effect, 100 is complete control
Procedure, shortened: as §1

[4] = test system: pigweed (Amaranthus retroflexus); test: as above; details: 0 is no effect, 100 is complete control
Procedure, shortened: as §1

[5] = test system: ragweed (common ragweed, Ambrosia elatior); test: as above; details: 0 is no effect, 100 is complete control
Procedure, shortened: as §1

[6] = test system: ryegrass, It. (Italian ryegrass, Lolium multiflorum); test: as above; details: 0 is no effect, 100 is complete control
Procedure, shortened: as §1

[7] = test system: barnyardgrass (Echinochloa crus-galli); test: Test B flooded paddy test, visual rating; details: Flood, 250 g ai/ha, applied to paddy water, rated after 13 to 15 d
Procedure, shortened: (§2)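 Ratings use a 0-100 visual scale, where 100 is complete control, and compare treated plants with controls after 13 to 15 d of greenhouse growth. Compound went straight into paddy water kept 3 cm over the soil surface, applied to seedlings at the 2-leaf stage.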

[8] = test system: ducksalad (Heteranthera limosa); test: Test B flooded paddy test, visual rating; details: Flood, 250 g ai/ha, applied to paddy water, rated after 13 to 15 d
Procedure, shortened: as §2

rice (Oryza sativa) = test: Test B flooded paddy test, visual rating; details: Flood, 250 g ai/ha, applied to paddy water, rated after 13 to 15 d
Procedure, shortened: as §2

[9] = test system: sedge, umbrella (small-flower umbrella sedge, Cyperus difformis); test: Test B flooded paddy test, visual rating; details: Flood, 250 g ai/ha, applied to paddy water, rated after 13 to 15 d
Procedure, shortened: as §2

[10] = test system: barnyardgrass (Echinochloa crus-galli); test: Test A postemergence application, visual injury rating; details: 0 to 100 scale, 0 no effect, 100 complete control
Procedure, shortened: as §1

[11] = test system: blackgrass (Alopecurus myosuroides); test: as above; details: 0 to 100 scale, 0 no effect, 100 complete control
Procedure, shortened: as §1

corn (Zea mays) = test: as above; details: for Plant response rating (0 to 100 scale), Corn: 31 g ai/ha, 0 is no effect, 100 is complete control; for Corn plant response rating: 125 g ai/ha, 0 to 100 scale, 0 no effect, 100 complete control
Procedure, shortened: as §1

[12] = test system: foxtail, giant (giant foxtail, Setaria faberii); test: as above; details: for Plant response rating (0 to 100 scale), Foxtail, Giant: 31 g ai/ha, 0 is no effect, 100 is complete control; for Foxtail, Giant plant response rating: 125 g ai/ha, 0 to 100 scale, 0 no effect, 100 complete control
Procedure, shortened: as §1

[13] = test system: galium (catchweed bedstraw, Galium aparine); test: as above; details: for Plant response rating (0 to 100 scale), Galium: 31 g ai/ha, 0 is no effect, 100 is complete control; for Galium plant response rating: 125 g ai/ha, 0 to 100 scale, 0 no effect, 100 complete control
Procedure, shortened: as §1

kochia (Kochia scoparia) [14] = test: as above; details: for Plant response rating (0 to 100 scale), Kochia: 31 g ai/ha, 0 is no effect, 100 is complete control; for Kochia plant response rating: 125 g ai/ha, 0 to 100 scale, 0 no effect, 100 complete control
Procedure, shortened: as §1

[15] = test system: pigweed (Amaranthus retroflexus); test: as above; details: for Plant response rating (0 to 100 scale), Pigweed: 31 g ai/ha, 0 is no effect, 100 is complete control; for Pigweed plant response rating: 125 g ai/ha, 0 to 100 scale, 0 no effect, 100 complete control
Procedure, shortened: as §1

[16] = test system: ragweed (common ragweed, Ambrosia elatior); test: as above; details: for Plant response rating (0 to 100 scale), Ragweed: 31 g ai/ha, 0 is no effect, 100 is complete control; for Ragweed plant response rating: 125 g ai/ha, 0 to 100 scale, 0 no effect, 100 complete control
Procedure, shortened: as §1

[17] = test system: ryegrass, It. (Italian ryegrass, Lolium multiflorum); test: as above; details: for Plant response rating (0 to 100 scale), Ryegrass, It.: 31 g ai/ha, 0 is no effect, 100 is complete control; for Ryegrass, It. plant response rating: 125 g ai/ha, 0 to 100 scale, 0 no effect, 100 complete control
Procedure, shortened: as §1

[18] = test system: wheat (Triticum aestivum); test: as above; details: for Plant response rating (0 to 100 scale), Wheat: 31 g ai/ha, 0 is no effect, 100 is complete control; for Wheat plant response rating: 125 g ai/ha, 0 to 100 scale, 0 no effect, 100 complete control
Procedure, shortened: as §1

Row | SMILES | Plant response rating (0 to 100 scale), Barnyardgrass ([1]; 31 g ai/ha) | Plant response rating (0 to 100 scale), Barnyardgrass ([1]; 125 g ai/ha) | Plant response rating (0 to 100 scale), Foxtail, Giant ([2]; 31 g ai/ha) | Plant response rating (0 to 100 scale), Foxtail, Giant ([2]; 125 g ai/ha) | Plant response rating (0 to 100 scale), Kochia (kochia (Kochia scoparia) [3]; 31 g ai/ha) | Plant response rating (0 to 100 scale), Kochia (kochia (Kochia scoparia) [3]; 125 g ai/ha) | Plant response rating (0 to 100 scale), Pigweed ([4]; 31 g ai/ha) | Plant response rating (0 to 100 scale), Pigweed ([4]; 125 g ai/ha) | Plant response rating (0 to 100 scale), Ragweed ([5]; 31 g ai/ha) | Plant response rating (0 to 100 scale), Ragweed ([5]; 125 g ai/ha) | Plant response rating (0 to 100 scale), Ryegrass, It. ([6]; 31 g ai/ha) | Plant response rating (0 to 100 scale), Ryegrass, It. ([6]; 125 g ai/ha) | Barnyardgrass plant response rating (0 to 100 scale, 0 is no effect, 100 is complete control) [7] | Ducksalad plant response rating (0 to 100 scale, 0 is no effect, 100 is complete control) [8] | Rice plant response rating (0 to 100 scale, 0 is no effect, 100 is complete control) (rice (Oryza sativa)) | Sedge, Umbrella plant response rating (0 to 100 scale, 0 is no effect, 100 is complete control) [9] | Barnyardgrass plant response rating ([10]; 31 g ai/ha) | Barnyardgrass plant response rating ([10]; 125 g ai/ha) | Blackgrass plant response rating ([11]; 31 g ai/ha) | Blackgrass plant response rating ([11]; 125 g ai/ha) | further results
1 | CC(=O)Oc1c(C)nn(C)c(=O)c1-c1ccc(Cl)c2sccc12 [Compound 60] | 0 | 0 | 0 | 0 | 0 | 0 | 0 | 100 | 0 | 0 | 0 | 10 | 0 | 0 | 0 | 0 | 0 | 0 | 0 | 0 | Plant response rating (0 to 100 scale), Corn (corn (Zea mays)): 0; Corn plant response rating (corn (Zea mays)): 0; Plant response rating (0 to 100 scale), Foxtail, Giant [12]: 0; Foxtail, Giant plant response rating [12]: 0; Plant response rating (0 to 100 scale), Galium [13]: 20; Galium plant response rating [13]: 100; Plant response rating (0 to 100 scale), Kochia (kochia (Kochia scoparia) [14]): 20; Kochia plant response rating (kochia (Kochia scoparia) [14]): 70; Plant response rating (0 to 100 scale), Pigweed [15]: 0; Pigweed plant response rating [15]: 30; Plant response rating (0 to 100 scale), Ragweed [16]: 0; Ragweed plant response rating [16]: 0; Plant response rating (0 to 100 scale), Ryegrass, It. [17]: 0; Ryegrass, It. plant response rating [17]: 10; Plant response rating (0 to 100 scale), Wheat [18]: 0; Wheat plant response rating [18]: 0
2 | Cc1nn(C)c(=O)c(-c2ccc(Cl)c3sccc23)c1O [Compound 63] | 0 | 0 | 0 | 0 | 10 | 20 | 0 | 0 | 0 | 0 | 0 | 20 | 0 | 0 | 0 | 0 | 0 | 0 | 0 | 0 | Plant response rating (0 to 100 scale), Corn (corn (Zea mays)): 0; Corn plant response rating (corn (Zea mays)): 0; Plant response rating (0 to 100 scale), Foxtail, Giant [12]: 0; Foxtail, Giant plant response rating [12]: 0; Plant response rating (0 to 100 scale), Galium [13]: 30; Galium plant response rating [13]: 90; Plant response rating (0 to 100 scale), Kochia (kochia (Kochia scoparia) [14]): 0; Kochia plant response rating (kochia (Kochia scoparia) [14]): 60; Plant response rating (0 to 100 scale), Pigweed [15]: 0; Pigweed plant response rating [15]: 50; Plant response rating (0 to 100 scale), Ragweed [16]: 0; Ragweed plant response rating [16]: 0; Plant response rating (0 to 100 scale), Ryegrass, It. [17]: 0; Ryegrass, It. plant response rating [17]: 10; Plant response rating (0 to 100 scale), Wheat [18]: 0; Wheat plant response rating [18]: 0
